Experimental data: US4634704A, “Anti-allergic five membered heterocyclic ring containing N-(bicyclic heterocycyl)-4-piperidinamines” (Janssen Pharmaceutica, N.V., priority 1984, dated 1987)
Counter-ions that a name gives are not always drawn. Like-named read-outs stand apart in the source and are kept apart here.

Tests used:
[1] = test system: effects of serotonin in the gastric lesion test; assay: Antagonistic activity on the effects of serotonin in the gastric lesion test (lesions induced by compound 48/80); type: in vivo, rat (male, Wistar inbred strain)
Excerpt: The compounds of formula (I) and the pharmaceutically acceptable acid addition salts thereof are also potent serotonin-antagonists. The potency of the subject compounds as serotonin-antagonists is clearly evidenced by the results obtained in the following tests wherein the antagonistic activity of the subject compounds on the effect of serotonin is examined.
Antagonistic activity on the effects of serotonin in the gastric lesion test.
The shock, followed by dead, can be avoided if the rats are pretreated with a classical H 1 antagonist.
Male rats of a Wistar inbred strain, weighing 220-250 g, were starved overnight, water being available ad libitum. The test compounds were administered orally as a solution or as a suspension in aqueous medium. A control rat and a "blank" rat received the test compound. One hour later 5-[4-(diphenylmethyl)-1-piperazinylmethyl]-1-methyl-1H-benzimidazole-2-methanol was administered subcutaneously to all rats at the dose of 2.5 mg/kg.
Four hours after the intravenous injection of compound 48/80, the rats were decapitated and the stomachs were removed. Subsequently the stomachs were inspected for distension and contents (blood, fluid, food) and thoroughly rinsed. The macroscopic lesions were scored from 0 to +++, 0 corresponding to the complete absence of visible lesions and the highest score corresponding to reddish rough patches covering more than half the glandular area.

[2] = test system: compound 48/80-induced lethality; assay: Protection of rats from compound 48/80-induced lethality; type: in vivo, rat (male, inbred Wistar strain); settings: subcutaneous or oral, 1 h before compound 48/80 0.5 mg/kg i.v., survival after 4 h; for ED50: Rattus norvegicus, 4 h, read-out: compound 48/80 lethality test in rats-ED50, dose protecting 50% of animals
Method: Protection of rats from compound 48/80-induced lethality.
The protection from compound 48/80-induced lethal circulatory collapse appears to be a simple way of evaluating quantitatively the antihistaminic activity of test compounds. Male rats of an inbred Wistar strain, weighing 240-260 g were used in the experiment. After overnight starvation the rats were transferred to conditioned laboratories (temp.=21±1° C., relative humidity=65±5%).
The rats were treated subcutaneously or orally with a test compound or with the solvent (NaCl solution, 0.9%). […] Survival after 4 hours is therefore considered to be a safe criterion of a protective effect of drug administration.
The ED50 -values of the compounds of formula (I) are listed in the first column of table 1. Said ED50 -values are the values in mg/kg body weight at which the tested compounds protect 50% of the tested animals against compound 48/80-induced lethality.

[3] = Rattus norvegicus, read-out: gastric lesion test ED50
[4] = Rattus norvegicus; read-out: gastric lesion test ED50

Row | SMILES | ED50 [2] | also measured
1 | Cc1csc(NCCN2CCC(Nc3nc4ccccc4n3Cc3ccc(F)cc3)CC2)n1 [Compound 85, 1-[(4-fluorophenyl)methyl]-N-[1-[2-[(4-methyl-2-thiazolyl)amino]ethyl]-4-piperidinyl]-1H-benzimidazol-2-amine] | 0.08 mg/kg | ED50 [1, 3]: 0.04 mg/kg
2 | Fc1ccc(Cn2c(NC3CCN(CCNc4nc(-c5ccncc5)cs4)CC3)nc3ccccc32)cc1 [Compound 86] | 0.31 mg/kg | ED50 [1, 4]: 1.25 mg/kg
3 | Fc1ccc(Cn2c(NC3CCN(CCNc4ncc[nH]4)CC3)nc3ccccc32)cc1 [Compound 79, 1-[(4-fluorophenyl)methyl]-N-[1-[2-(1H-imidazol-2-ylamino)ethyl]-4-piperidinyl]-1H-benzimidazol-2-amine] | 0.02 mg/kg | ED50 [1, 3]: 0.04 mg/kg
4 | COc1ccc(Cn2c(NC3CCN(CCNc4nccs4)CC3)nc3ccccc32)cc1 [Compound 24] | 0.31 mg/kg | –
5 | Cc1ccc(Cn2c(NC3CCN(CCNc4nccs4)CC3)nc3ccccc32)cc1 [Compound 62] | 0.16 mg/kg | ED50 [1, 4]: 0.63 mg/kg
6 | Fc1ccc(Cn2c(NC3CCN(CCCCNc4nccs4)CC3)nc3ccccc32)cc1 [Compound 53] | 0.31 mg/kg | –
7 | O=[N+]([O-])c1ccc(Cn2c(NC3CCN(CCNc4nccs4)CC3)nc3ccccc32)cc1 [Compound 43] | 0.31 mg/kg | –
8 | Fc1ccc(Cn2ccnc2NCCN2CCC(Nc3nc4ccccc4n3Cc3ccc(F)cc3)CC2)cc1 [Compound 82, 1-[(4-fluorophenyl)methyl]-N-[1-[2-[[1-[(4-fluorophenyl)methyl]-1H-imidazol-2-yl]amino]ethyl]-4-piperidinyl]-1H-benzimidazol-2-amine cyclohexanesulfamate(1:3).dihydrate] | 0.16 mg/kg | –
9 | Fc1ccc(Cn2c(NC3CCN(C4CCN(c5nccs5)CC4)CC3)nc3ccccc32)cc1 [Compound 52] | 1.25 mg/kg | ED50 [1, 4]: 0.63 mg/kg
10 | c1coc(Cn2c(NC3CCN(CCNc4nccs4)CC3)nc3cccnc32)c1 [Compound 56] | 0.01 mg/kg | –
11 | CC(c1ccc(Cl)cc1)n1ccnc1NCCN1CCC(Nc2nc3ccccc3n2Cc2ccc(F)cc2)CC1 (centres unmarked) [Compound 106, N-[1-[2-[[1-[1-(4-chlorophenyl)ethyl]-1H-imidazol-2-yl]amino]ethyl]-4-piperidinyl]-1-[(4-fluorophenyl)methyl]-1H-benzimidazol-2-amine cyclohexanesulfamate(1:3).dihydrate] | 0.63 mg/kg | –
12 | CNC(=S)N(CCN1CCC(Nc2nc3ccccc3n2Cc2ccc(F)cc2)CC1)c1nccs1 [Compound 104, N-[2-[4-[[1-[(4-fluorophenyl)methyl]-1H-benzimidazol-2-yl]amino]-1-piperidinyl]ethyl]-N'-methyl-N-(2-thiazolyl)thiourea] | 0.16 mg/kg | –
13 | CN(c1nc2ccccc2n1Cc1ccc(F)cc1)C1CCN(CCNc2nccs2)CC1 [Compound 26] | 0.02 mg/kg | –
14 | Fc1ccc(Cn2c(NC3CCN(CCNc4nc(-c5ccccn5)cs4)CC3)nc3ccccc32)cc1 [Compound 87] | 0.31 mg/kg | ED50 [1, 4]: 0.63 mg/kg
15 | Nc1ccc(Cn2c(NC3CCN(CCNc4nccs4)CC3)nc3ccccc32)cc1 [Compound 35] | 0.31 mg/kg | –
16 | O=C(Cc1c[nH]c2ccccc12)NCCN1CCC(Nc2nc3ccccc3n2Cc2ccc(F)cc2)CC1 [Compound 77, N-[2-[4-[[1-[(4-fluorophenyl)methyl]-1H-benzimidazol-2-yl]amino]-1-piperidinyl]ethyl]-1H-indol-3-acetamide] | 0.16 mg/kg | –
17 | Nc1nc(CCN2CCC(Nc3nc4ccccc4n3Cc3ccc(F)cc3)CC2)cs1 [Compound 91, N-[1-[2-(2-amino-4-thiazolyl)ethyl]-4-piperidinyl]-1-[(4-fluorophenyl)methyl]-1H-benzimidazol-2-amine] | 0.08 mg/kg | –
18 | Fc1ccc(Cn2c(NC3CCN(CCc4csc(-c5ccccc5)n4)CC3)nc3ccccc32)cc1 [Compound 92, 1-[(4-fluorophenyl)methyl]-N-[1-[2-(2-phenyl-4-thiazolylethyl]-4-piperidinyl]-1H-benzimidazol-2-aminedihydrochloride monohydrate] | 0.63 mg/kg | –
19 | Cn1c(C(=O)NCCN2CCC(Nc3nc4ccccc4n3Cc3ccc(F)cc3)CC2)cc2ccccc21 [Compound 78, N-[2-[4-[[1-[(4-fluorophenyl)methyl]-1H-benzimidazol-2-yl]amino]-1piperidinyl]ethyl]-1-methyl-1H-indole-2-carboxamide] | 0.16 mg/kg | –

Row | SMILES | ED50 [2] | also measured
20 | CN(CCN1CCC(Nc2nc3ccccc3n2Cc2ccc(F)cc2)CC1)c1nccs1 [Compound 50, 1-[(4-fluorophenyl)methyl]-N-[1-[2-[methyl(2-thiazolyl)amino]ethyl]-4-piperidinyl]-1H-benzimidazol-2-amine] | 0.08 mg/kg | –
21 | N=C(NCCN1CCC(Nc2nc3ccccc3n2Cc2ccc(F)cc2)CC1)Nc1nc2ccccc2[nH]1 [Compound 66, N-(1H-benzimidazol-2-yl)-N'-[2-[4-[[1-[(4-fluorophenyl)methyl]-1H-benzimidazol-2-yl]amino]-1-piperidinyl]ethyl]guanidine trihydrochloride.dihydrate] | 0.31 mg/kg | –
22 | Fc1ccc(Cn2c(NC3CCN(CCNc4nccs4)CC3)nc3ccccc32)cc1 [Compound 16] | – | compound 48/80 lethality test in rats-ED50 ([2]; dose protecting 50% of animals, 0.5 mg/kg, 240 min): 0.08 mg/kg body weight
23 | Fc1ccc(Cn2c(NC3CCN(CCSc4nc5ccccc5o4)CC3)nc3ccccc32)cc1 [Compound 73, N-[1-[2-[(2-benzoxazolyl)thio]ethyl]-4-piperidinyl]-1-[(4-fluorophenyl)methyl]-1H-benzimidazol-2-amine] | 0.63 mg/kg | –
24 | c1ccc(Cn2c(NC3CCN(CCNc4nccs4)CC3)nc3ccccc32)nc1 [Compound 27] | 0.04 mg/kg | –
25 | O=C(NCCN1CCC(Nc2nc3ccccc3n2Cc2ccc(F)cc2)CC1)c1cc2ccccc2[nH]1 [Compound 76, N-[2-[4-[[1-[(4-fluorophenyl)methyl]-1H-benzimidazol-2-yl]amino]-1-piperidinyl]ethyl]-1H-indole-2-carboxamide] | 0.16 mg/kg | –
26 | Cn1cnc([N+](=O)[O-])c1NCCN1CCC(Nc2nc3ccccc3n2Cc2ccc(F)cc2)CC1 [Compound 12] | 0.31 mg/kg | –
27 | CCc1nnc(NCCN2CCC(Nc3nc4ccccc4n3Cc3ccc(F)cc3)CC2)s1 [Compound 33] | 0.16 mg/kg | –
28 | CCn1nnnc1SCCN1CCC(Nc2nc3ccccc3n2Cc2ccc(F)cc2)CC1 [Compound 74, N-[1-[2-[(1-ethyl-1H-tetrazol-5-yl)thio]ethyl]-4-piperidinyl]-1-[(4-fluorophenyl)methyl]-1H-benzimidazol-2-amine] | 0.08 mg/kg | –
29 | CCn1nnnc1OCCN1CCC(Nc2nc3ccccc3n2Cc2ccc(F)cc2)CC1 [Compound 10, N-[1-[2-[(1-ethyl-1H-tetrazol-5-yl)oxy]ethyl]-4-piperidinyl]-1-[(4-fluorophenyl)methyl]-1H-benzimidazol-2-amine (E)-2-butenedioate (2:5)] | 0.04 mg/kg | –
30 | Fc1ccc(Cn2c(NC3CCN(CCNc4nccs4)CC3)nc3ccncc32)cc1 [Compound 23] | 0.08 mg/kg | –
31 | Fc1ccc(Cn2c(NC3CCN(CCCNc4nccs4)CC3)nc3ccccc32)cc1 [Compound 20] | 0.16 mg/kg | –
32 | Fc1ccc(Cn2c(NC3CCN(CCOc4nc5ccccc5s4)CC3)nc3ccccc32)cc1 [Compound 67, N-[1-[2-(2-benzothiazolyloxy)ethyl]-4-piperidinyl]-1-[(4-fluorophenyl)methyl]-1H-benzimidazol-2-amine] | 0.63 mg/kg | –
33 | Fc1ccc(Cn2c(NC3CCN(Cc4nc5ccccc5[nH]4)CC3)nc3ccccc32)cc1.O [Compound 2, N-[1-(1H-benzimidazol-2-ylmethyl)-4-piperidinyl]-1-(4fluorophenylmethyl)-1H-benzimidazol-2-amine monohydrate] | 0.63 mg/kg | –
34 | Fc1ccc(Cn2c(NC3CCN(CCNc4nccn4-c4ncccn4)CC3)nc3ccccc32)cc1 [Compound 105] | 0.16 mg/kg | –
35 | CCOC(=O)N(CCN1CCC(Nc2nc3ccccc3n2Cc2ccc(F)cc2)CC1)c1nccs1 [Compound 101, ethyl[2-[4-[[1-[(4-fluorophenyl)methyl]-1H-benzimidazol-2-yl]amino]-1-piperidinyl]ethyl](2-thiazolyl)carbamate] | 0.31 mg/kg | –
36 | O=[N+]([O-])c1cnc(NCCN2CCC(Nc3nc4ccccc4n3Cc3ccc(F)cc3)CC2)s1 [Compound 32] | 0.63 mg/kg | –
37 | Fc1ccc(Cn2c(NC3CCN(CCNc4nc5ccccc5s4)CC3)nc3ccccc32)cc1 [Compound 19] | 0.31 mg/kg | –
38 | c1ccc(Cn2c(NC3CCN(CCNc4nccs4)CC3)nc3cccnc32)nc1 [Compound 57] | 0.005 mg/kg | –
